From ChEMBL document CHEMBL2074530, “Interaction of ivermectin with multidrug resistance proteins (MRP1, 2 and 3)” (Chem Biol Interact, 2006)

Biological target: Multidrug resistance-associated protein 1 (Homo sapiens, UniProt P33527)
Test: TP_TRANSPORTER: inhibition of BODIPY-ivermectin transport in HL60-MRP1 cells
Type: functional, cell-based

Chain of Multidrug resistance-associated protein 1 (P33527 whole entry): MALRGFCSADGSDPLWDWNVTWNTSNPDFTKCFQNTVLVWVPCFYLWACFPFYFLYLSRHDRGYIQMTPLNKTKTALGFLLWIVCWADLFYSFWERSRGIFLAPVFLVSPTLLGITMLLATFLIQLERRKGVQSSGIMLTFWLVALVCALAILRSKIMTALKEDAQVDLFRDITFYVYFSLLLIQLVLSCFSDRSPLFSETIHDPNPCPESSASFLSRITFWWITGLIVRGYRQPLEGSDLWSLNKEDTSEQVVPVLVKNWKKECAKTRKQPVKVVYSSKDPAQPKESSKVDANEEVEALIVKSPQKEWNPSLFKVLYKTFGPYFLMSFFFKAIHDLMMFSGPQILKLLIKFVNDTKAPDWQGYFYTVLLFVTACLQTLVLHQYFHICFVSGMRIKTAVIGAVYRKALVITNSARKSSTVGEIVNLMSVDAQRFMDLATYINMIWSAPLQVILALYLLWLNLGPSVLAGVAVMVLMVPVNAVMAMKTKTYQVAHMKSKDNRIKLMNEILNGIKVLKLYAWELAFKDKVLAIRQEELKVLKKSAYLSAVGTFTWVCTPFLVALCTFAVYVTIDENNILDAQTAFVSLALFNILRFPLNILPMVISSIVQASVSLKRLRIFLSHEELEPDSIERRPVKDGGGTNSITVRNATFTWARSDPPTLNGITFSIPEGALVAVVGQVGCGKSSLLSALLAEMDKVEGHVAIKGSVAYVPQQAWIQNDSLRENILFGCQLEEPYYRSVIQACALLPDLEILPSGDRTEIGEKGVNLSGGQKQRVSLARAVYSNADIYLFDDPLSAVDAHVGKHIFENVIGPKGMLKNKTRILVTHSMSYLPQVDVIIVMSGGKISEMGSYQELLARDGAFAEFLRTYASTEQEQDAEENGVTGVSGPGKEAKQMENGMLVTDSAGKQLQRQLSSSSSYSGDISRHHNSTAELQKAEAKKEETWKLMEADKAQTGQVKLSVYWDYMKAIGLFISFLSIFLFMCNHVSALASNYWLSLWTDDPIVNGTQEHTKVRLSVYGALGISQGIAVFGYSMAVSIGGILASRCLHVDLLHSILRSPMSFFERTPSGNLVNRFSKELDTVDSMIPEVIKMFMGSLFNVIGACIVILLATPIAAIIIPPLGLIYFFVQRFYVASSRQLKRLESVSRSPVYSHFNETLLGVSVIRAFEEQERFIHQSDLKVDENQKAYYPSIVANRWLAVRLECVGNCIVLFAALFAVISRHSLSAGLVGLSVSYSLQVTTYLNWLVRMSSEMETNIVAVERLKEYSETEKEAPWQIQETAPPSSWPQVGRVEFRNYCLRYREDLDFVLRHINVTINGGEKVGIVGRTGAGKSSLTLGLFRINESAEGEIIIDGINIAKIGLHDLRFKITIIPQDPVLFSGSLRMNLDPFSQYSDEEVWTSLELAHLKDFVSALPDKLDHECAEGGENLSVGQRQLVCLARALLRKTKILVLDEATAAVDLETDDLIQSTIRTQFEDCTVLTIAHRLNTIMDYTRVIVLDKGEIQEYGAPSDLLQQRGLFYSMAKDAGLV

Activity: inhibitor [+]
Sequence: IVERMECTIN
